Data published in patent US9969723B2, “3-(4-(benzyloxy)phenyl)hex-4-ynoic acid derivative, method of preparing same and pharmaceutical composition for preventing and treating metabolic disease including same as effective ingredient” (HYUNDAI PHARM CO., LTD, priority 2014, dated 2018).
Read-outs that look alike come from different tables or passages of the source.

Key:
[1] = target: T1, GPR40 (Homo sapiens (Human), UniProt O14842); assay: GPR40 protein activity by intracellular calcium concentration (Fluo-4, Flexstation 3) in transfected HEK-293 cells; assay type: cell-based; settings: HEK-293 cells transfected with human GPR40, intracellular calcium
T1 sequence (O14842 whole entry): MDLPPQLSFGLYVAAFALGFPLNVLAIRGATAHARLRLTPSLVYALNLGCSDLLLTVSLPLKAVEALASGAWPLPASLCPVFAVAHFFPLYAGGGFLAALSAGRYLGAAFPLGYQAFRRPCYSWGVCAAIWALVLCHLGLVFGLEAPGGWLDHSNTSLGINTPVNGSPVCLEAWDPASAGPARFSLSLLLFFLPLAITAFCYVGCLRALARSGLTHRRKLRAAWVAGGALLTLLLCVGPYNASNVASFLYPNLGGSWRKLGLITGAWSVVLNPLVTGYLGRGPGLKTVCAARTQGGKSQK
Description: The GPR40 protein activity according to the novel 3-(4-(benzyloxy)phenyl)hex-4-inoic acid derivative of the present invention was measured by investigating the changes in intracellular calcium concentration affected by the GRP40 activation. First, HEK-293 cells were transfected with human GPR40 DNA (Origene, RC218370) by using Fugene HD (Promega, E2311). […] 24 hours later, the cell culture medium was replaced with Dulbecco's Modified Eagle Medium (DMEM, 50 μl/well) supplemented with 1% fetal bovine serum (FBS). To measure the calcium concentration, 50 μl of Fluo-4 reagent (Invitrogen, F10471) was added to each well, followed by culture in a 37° C. incubator for 2 hours. […] 2 hours after the culture began, those prepared samples were automatically injected to the cells by using Flexstation 3 (Molecular Devices). Then, intracellular calcium concentration was measured for 120 seconds by using SoftMax® Pro software. At this time, dimethylsulfoxide (DMSO) was injected to the cells for the non-treated group, followed by measuring the calcium concentration therein. The GPR40 protein activity was calculated by the below mathematical formula 1 with the results of calcium concentration measurement. GPR40 activity=(intracellular calcium concentration increased by the sample)/(intracellular calcium concentration of the non-treated group)×100 [Mathematical Formula 1]

[2] = target: CYP1A2 (Homo sapiens (Human), UniProt P05177); assay: CYP inhibition (BD GENTEST kit); assay type: in vitro ADME; settings: pH 7.4
CYP1A2, sequence (P05177 whole entry): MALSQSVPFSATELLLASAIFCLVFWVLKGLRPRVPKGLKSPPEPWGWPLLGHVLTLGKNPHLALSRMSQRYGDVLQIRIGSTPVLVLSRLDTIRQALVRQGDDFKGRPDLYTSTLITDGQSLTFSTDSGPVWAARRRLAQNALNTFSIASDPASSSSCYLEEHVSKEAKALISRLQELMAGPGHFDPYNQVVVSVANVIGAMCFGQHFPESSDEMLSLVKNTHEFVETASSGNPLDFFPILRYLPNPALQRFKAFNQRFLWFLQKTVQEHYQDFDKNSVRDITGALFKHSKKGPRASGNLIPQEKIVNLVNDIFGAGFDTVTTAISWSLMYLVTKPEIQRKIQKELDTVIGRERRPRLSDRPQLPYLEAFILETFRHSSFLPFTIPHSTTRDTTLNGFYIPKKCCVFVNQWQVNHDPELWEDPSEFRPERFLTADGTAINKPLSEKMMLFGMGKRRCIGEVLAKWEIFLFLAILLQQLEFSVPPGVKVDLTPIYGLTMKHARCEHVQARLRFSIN
Description: (§1) CYP is the enzyme involved in drug metabolism. So, the inhibition of this enzyme can change the prediction of dose of a drug and toxicity caused by the co-treatment with other drugs. Therefore, the inventors measured the inhibitory effect of the compounds of Examples of the invention on endogenous CYP3A4, CYP2C9, CYP1A2, CYP2D6, and CYP2C19. […] To prepare the Invitrogen kit, the test sample was diluted in distilled water at 2.5× of the final experimental concentration.
(§2) The test sample for BD GENTEST kit was diluted in acetonitrile at 50× of the final experimental concentration. NADPH-coenzyme mixture was prepared by diluting the coenzyme, G6PDH, and regulatory protein included in the kit with distilled water at the concentration instructed by the kit. The prepared 50× sample (4 μL) and the NADPH-coenzyme mixture (96 μL) were mixed in each well of U-bottom 96-well plate, followed by pre-culture for 10 minutes in a 37° C. incubator. Enzyme/substrate mixed solution was prepared by diluting the buffer (0.5 M potassium phosphate, pH 7.4), each CYP450 enzyme/substrate mixed solution included in the kit with distilled water at the instructed concentration. Upon completion of the pre-culture, 100 μL of the enzyme/substrate mixed solution was added in each well of the plate, followed by culture in a 37° C. incubator for 15 minutes (CYP 1A2), 30 minutes (CYP 3A4 and CYP 2C19) or 1 and half hours (CYP 2C9). […] The values obtained above were converted into % as the inhibition rate of the sample by the value of the non-treated group.

[3] = target: CYP2C19 (Homo sapiens (Human), UniProt P33261); assay: CYP inhibition (BD GENTEST kit); assay type: in vitro ADME; settings: pH 7.4, read-out: CYP inhibition (%) 2C19
CYP2C19, sequence (P33261 whole entry): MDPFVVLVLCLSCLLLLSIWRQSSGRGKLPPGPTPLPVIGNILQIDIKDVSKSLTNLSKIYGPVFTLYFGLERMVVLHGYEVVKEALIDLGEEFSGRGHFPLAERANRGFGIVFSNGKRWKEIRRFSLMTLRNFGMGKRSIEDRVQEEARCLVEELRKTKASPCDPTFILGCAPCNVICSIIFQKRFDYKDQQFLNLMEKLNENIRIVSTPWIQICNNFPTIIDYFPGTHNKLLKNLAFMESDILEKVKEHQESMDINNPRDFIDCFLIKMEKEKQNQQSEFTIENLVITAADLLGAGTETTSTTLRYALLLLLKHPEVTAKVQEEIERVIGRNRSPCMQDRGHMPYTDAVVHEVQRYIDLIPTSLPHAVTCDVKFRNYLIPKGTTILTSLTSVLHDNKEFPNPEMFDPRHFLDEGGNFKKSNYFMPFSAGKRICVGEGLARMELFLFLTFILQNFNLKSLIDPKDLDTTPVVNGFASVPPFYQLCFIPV
Description: as §1, §2

[4] = target: CYP2C9 (Homo sapiens (Human), UniProt P11712); assay: CYP inhibition (BD GENTEST kit); assay type: in vitro ADME; settings: pH 7.4, read-out: CYP inhibition (%) 2C9
CYP2C9, sequence (P11712 whole entry): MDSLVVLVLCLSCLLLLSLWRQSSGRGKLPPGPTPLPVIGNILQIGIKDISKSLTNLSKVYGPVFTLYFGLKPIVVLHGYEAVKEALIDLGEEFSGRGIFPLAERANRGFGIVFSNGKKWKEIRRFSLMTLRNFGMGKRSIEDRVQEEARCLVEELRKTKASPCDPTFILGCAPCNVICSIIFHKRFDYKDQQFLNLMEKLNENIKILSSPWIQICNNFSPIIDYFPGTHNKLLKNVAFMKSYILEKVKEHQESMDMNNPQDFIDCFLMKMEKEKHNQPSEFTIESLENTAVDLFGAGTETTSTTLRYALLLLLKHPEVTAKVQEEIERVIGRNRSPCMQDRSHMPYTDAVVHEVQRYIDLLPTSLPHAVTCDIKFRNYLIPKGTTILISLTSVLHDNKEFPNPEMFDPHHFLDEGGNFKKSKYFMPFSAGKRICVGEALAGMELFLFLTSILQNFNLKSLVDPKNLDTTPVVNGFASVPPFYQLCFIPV
Description: as §1, §2

[5] = target: CYP2D6 (Homo sapiens (Human), UniProt P10635); assay: CYP inhibition (Invitrogen Vivid kit); assay type: in vitro ADME; settings: probe Vivid CYP450 substrate, read-out: CYP inhibition (%) 2D6
CYP2D6, sequence (P10635 whole entry): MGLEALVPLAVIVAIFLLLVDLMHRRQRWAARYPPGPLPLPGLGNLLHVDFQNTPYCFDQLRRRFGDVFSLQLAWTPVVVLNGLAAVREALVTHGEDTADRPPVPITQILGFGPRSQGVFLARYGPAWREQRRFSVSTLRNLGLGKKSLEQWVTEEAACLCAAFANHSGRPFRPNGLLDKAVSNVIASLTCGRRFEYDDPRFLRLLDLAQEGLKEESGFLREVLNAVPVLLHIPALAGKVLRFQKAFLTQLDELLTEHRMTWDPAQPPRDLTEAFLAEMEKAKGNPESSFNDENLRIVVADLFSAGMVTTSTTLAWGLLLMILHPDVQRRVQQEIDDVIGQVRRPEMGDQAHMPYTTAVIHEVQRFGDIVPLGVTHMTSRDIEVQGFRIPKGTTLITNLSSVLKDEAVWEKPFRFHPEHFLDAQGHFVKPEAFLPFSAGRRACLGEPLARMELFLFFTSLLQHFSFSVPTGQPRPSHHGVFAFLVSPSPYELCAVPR
From the text: (§3) CYP is the enzyme involved in drug metabolism. So, the inhibition of this enzyme can change the prediction of dose of a drug and toxicity caused by the co-treatment with other drugs. Therefore, the inventors measured the inhibitory effect of the compounds of Examples of the invention on endogenous CYP3A4, CYP2C9, CYP1A2, CYP2D6, and CYP2C19. At this time, Invitrogen (P2862) was used as the CYP2D6 inhibition kit, and BD GENTEST (459100, 459300, 459400, 459500) was used as the CYP1A2, CYP2C9, CYP2C19, and CYP3A4 inhibition kit. To prepare the Invitrogen kit, the test sample was diluted in distilled water at 2.5× of the final experimental concentration.
P450 BACULOSOMES® reagent and reproducer (100×) included in Invitrogen kit were diluted in Vivid® CYP450 reaction buffer (2×) at the concentration that matched the target CYP450. The prepared 2.5× sample (80 μL) and the diluted P450 BACULOSOMES® reagent mixture (100 μL) were mixed in each well of U-bottom 96-well plate, followed by pre-culture for 20 minutes. Vivid® CYP450 substrate and NADP+ (100×) were diluted in Vivid® CYP450 reaction buffer (2×) at the concentration that matched the target CYP450 and the substrate. Upon completion of the pre-culture, substrate-NADP (nicotinamide adenine dinucleotide phosphate) mixed solution (20 μL) was added thereto, followed by reaction for 1 hour. Upon completion of the reaction, the reactant was transferred onto the white plate, and then fluorescence was measured with a microplate reader (CYP 2D6 excitation wavelength: 400 nm, absorption wavelength: 502 nm). […]

[6] = target: CYP3A4 (Homo sapiens (Human), UniProt P08684); assay: CYP inhibition (BD GENTEST kit); assay type: in vitro ADME; settings: pH 7.4, read-out: CYP inhibition (%) 3A4
CYP3A4, sequence (P08684 whole entry): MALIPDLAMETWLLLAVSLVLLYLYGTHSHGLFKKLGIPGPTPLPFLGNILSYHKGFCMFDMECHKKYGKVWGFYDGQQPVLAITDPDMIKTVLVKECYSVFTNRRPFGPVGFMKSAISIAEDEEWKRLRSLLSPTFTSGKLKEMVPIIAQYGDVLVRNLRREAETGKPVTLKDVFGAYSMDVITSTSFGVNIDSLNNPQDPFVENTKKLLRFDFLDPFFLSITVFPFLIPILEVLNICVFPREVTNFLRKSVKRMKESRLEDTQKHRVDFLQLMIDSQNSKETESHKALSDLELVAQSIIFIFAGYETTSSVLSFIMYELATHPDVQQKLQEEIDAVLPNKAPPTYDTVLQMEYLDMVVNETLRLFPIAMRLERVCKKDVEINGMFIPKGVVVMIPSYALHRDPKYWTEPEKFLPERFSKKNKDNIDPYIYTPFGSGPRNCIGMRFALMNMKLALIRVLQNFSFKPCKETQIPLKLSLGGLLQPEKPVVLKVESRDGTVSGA
From the text: as §3
The test sample for BD GENTEST kit was diluted in acetonitrile at 50× of the final experimental concentration. NADPH-coenzyme mixture was prepared by diluting the coenzyme, G6PDH, and regulatory protein included in the kit with distilled water at the concentration instructed by the kit. The prepared 50× sample (4 μL) and the NADPH-coenzyme mixture (96 μL) were mixed in each well of U-bottom 96-well plate, followed by pre-culture for 10 minutes in a 37° C. incubator. Enzyme/substrate mixed solution was prepared by diluting the buffer (0.5 M potassium phosphate, pH 7.4), each CYP450 enzyme/substrate mixed solution included in the kit with distilled water at the instructed concentration. Upon completion of the pre-culture, 100 μL of the enzyme/substrate mixed solution was added in each well of the plate, followed by culture in a 37° C. incubator for 15 minutes (CYP 1A2), 30 minutes (CYP 3A4 and CYP 2C19) or 1 and half hours (CYP 2C9). Upon completion of the reaction, the reactant was transferred onto the white plate, and then fluorescence was measured with a microplate reader (CYP 1A2 and CYP 2C19 excitation wavelength: 410 nm, absorption wavelength: 460 nm; CYP 2C9 and CYP 3A4 excitation wavelength: 409 nm, absorption wavelength: 530 nm). The values obtained above were converted into % as the inhibition rate of the sample by the value of the non-treated group.

[7] = target: T1, GPR40; assay: Calcium flux GPCR agonist assay (Millipore GPCR profiler, FLIPR TETRA)
Description: The compounds of Examples of the invention dissolved in DMSO (dimethyl sulfoxide), PBS (phosphate buffered saline), and DW (distilled water), etc, were diluted three-times with EMD Millipore's GPCR profiler assay buffer. […] Each well was filled with EMD Millipore's GPCR profiler assay buffer. The said EMD Millipore's GPCR profiler assay buffer was HBSS (Hanks Balanced Salt Solution) containing 20 mM HEPES (4-(2-hydroxyethyl)-1-piperazineethanesulfonic acid) and 2.5 mM Probenecid (4-(dipropylsulfamoyl)benzoic acid), whose pH was regulated as 7.4.
The compounds of Examples were duplicated at each concentration. […] Agonist assay was performed by using FLIPR^TETRA. Fluorescence and luminescence baseline were measured. […] To measure the activity of those compounds of Examples, GPCR activity assay was performed for 180 seconds.
When the assay data were not satisfactory, an additional experiment was performed.
All the concentration dependent graphs were made by using GraphPad Prism. The graph was modified by Sigmoidal dose response.

[8] = CYP2C19 enzyme of BD GENTEST inhibition kit
[9] = CYP2C9 enzyme of BD GENTEST inhibition kit
[10] = P450 BACULOSOMES reagent (Invitrogen Vivid CYP2D6 kit P2862)
[11] = CYP3A4 enzyme of BD GENTEST inhibition kit
[12] = CYP2C19 enzyme of the BD GENTEST CYP2C19 inhibition kit
[13] = CYP2C9 enzyme of the BD GENTEST CYP2C9 inhibition kit
[14] = CYP2D6 P450 BACULOSOMES reagent (Invitrogen kit P2862)
[15] = CYP3A4 enzyme of the BD GENTEST CYP3A4 inhibition kit

SMILES	EC50 ([1]; read-out: EC50) [nM]	inhibition at 15 min, 10 µM [2] [%]	inhibition at 30 min, 10 µM [3, 8] [%]	inhibition at 1.5 h, 10 µM [4, 9] [%]	inhibition at 1 h, 10 µM [5, 10] [%]	inhibition at 30 min, 10 µM [6, 11] [%]	EC50 [7] [nM]	inhibition at 30 min, 10 µM [3, 12] [%]	inhibition at 1.5 h, 10 µM [4, 13] [%]	inhibition at 1 h, 10 µM [5, 14] [%]	inhibition at 30 min, 10 µM [6, 15] [%]	EC50 ([1]; values in text, read-out: EC50, concentration promoting activation of GPR40 protein by 50%) [nM]
CC#C[C@@H](CC(=O)O)c1ccc(OCc2ccc(CN3CCC4(C=Cc5ccccc54)CC3)cc2)cc1 [Comparative Example 2, (3S)-3-(4-{[4-(1′H-spiro[indene-1,4′-piperidine]-1′-ylmethyl)benzyl]oxy}phenyl)hex-4-inoic acid, reference compound]	> 300	0	34.5	43.9	63.2	42	–	–	–	–	–	–
O=C(O)CCc1ccc(NCc2cccc(Oc3ccccc3)c2)cc1 [Comparative Example 3, 4-(3-phenoxybenzylamino)phenylpropionic acid, reference compound]	–	–	–	–	–	–	27	–	–	–	–	–
CC#C[C@@H](CC(=O)O)c1ccc(OCc2ccc(CN3CCC(c4ccccc4)CC3)cc2)cc1 [Example 26, (S)-3-(4-(4-((4-phenylpiperidine-1-yl)methyl)benzyloxy)phenyl)hex-4-ynoic acid]	> 300	0.7	13.2	31.5	2.3	14.1	–	–	–	–	–	–
CC#C[C@@H](CC(=O)O)c1ccc(OCc2ccc(CN3CCN(c4ccc(OCOC)cc4)CC3)cc2)cc1 [Example 29, (S)-3-(4-(4-((4-(4-(methoxymethoxy)phenyl)piperazine-1-yl)methyl)benzyloxy)phenyl)hex-4-ynoic acid]	200 to 300	0.7	9.7	26.7	18.2	0	–	–	–	–	–	–
CC#C[C@@H](CC(=O)O)c1ccc(OCc2ccc(CN3CCN(c4ccc(OCCCS(C)(=O)=O)cc4)CC3)cc2)cc1 [Example 36, (S)-3-(4-(4-((4-(4-(3-(methylsulfonyl)propoxy)phenyl)piperazine-1-yl)methyl)benzyloxy)phenyl)hex-4-ynoic acid]	> 300	16.6	10.8	0	1.8	11.5	–	–	–	–	–	–
CC#C[C@@H](CC(=O)O)c1ccc(OCc2ccc(CN3Cc4ccccc4C3)cc2)cc1 [Example 38, L-lysine (S)-3-(4-(4-(isoindoline-2-ylmethyl)benzyloxy)phenyl)hex-4-ynoate]	–	2.2	–	–	–	–	–	13.2	34.4	15.6	18.1	–
CC#C[C@@H](CC(=O)O)c1ccc(OCc2ccc(CN3CCN(c4ccc(OC)cc4)CC3)cc2)cc1 [Example 40, (S)-3-(4-(4-((4-(4-methoxyphenyl)piperazine-1-yl)methyl)benzyloxy)phenyl)hex-4-ynoic acid]	200 to 300	9.7	19.5	18.4	17.9	0	–	–	–	–	–	–

The remaining lines, values ahead:

EC50 ([1]; read-out: EC50) [nM]	inhibition at 15 min, 10 µM [2] [%]	inhibition at 30 min, 10 µM [3, 8] [%]	inhibition at 1.5 h, 10 µM [4, 9] [%]	inhibition at 1 h, 10 µM [5, 10] [%]	inhibition at 30 min, 10 µM [6, 11] [%]	EC50 [7] [nM]	inhibition at 30 min, 10 µM [3, 12] [%]	inhibition at 1.5 h, 10 µM [4, 13] [%]	inhibition at 1 h, 10 µM [5, 14] [%]	inhibition at 30 min, 10 µM [6, 15] [%]	EC50 ([1]; values in text, read-out: EC50, concentration promoting activation of GPR40 protein by 50%) [nM]	SMILES
> 300	0	–	–	–	–	–	19.4	21.1	6	33.1	–	CC#CC(CC(=O)O)c1ccc(OCc2ccc(C3=CCC4(CC3)OCCO4)cc2)cc1 (stereo not shown) [Example 3]
> 300	0	45.4	41.5	19.3	35	–	–	–	–	–	–	CC#CC(CC(=O)O)c1ccc(OCc2cccc(C3=CCC(=O)CC3)c2)cc1 (stereo not shown) [Example 4, 3-(4-(3-(4-oxocyclohex-1-enyl)benzyloxy)phenyl)hex-4-ynoic acid]
< 200	4.3	3.7	47.1	13.9	15.5	–	–	–	–	–	< 200	CC#C[C@@H](CC(=O)O)c1ccc(OCc2cccc(C3=CCC4(CC3)OCCO4)c2)cc1 [Example 7, (3S)-3-(4-(3-(1,4-dioxaspiro[4,5]dec-7-en-8-yl)benzyloxy)phenyl)hex-4-ynoic acid]
200 to 300	4	46.5	75.9	16.1	27.3	–	–	–	–	–	–	CC#C[C@@H](CC(=O)O)c1ccc(OCc2ccc(CN3CCc4ccccc4C3)cc2)cc1 [Example 21, (S)-3-(4-(4-((3,4-dihydroisoquinoline-2(1H)-yl)methyl)benzyloxy)phenyl)hex-4-ynoic acid]
